The subject of this experiment is P388 leukemia ip, CD2F1 mice, survival T/C. Briefly: NCI In Vivo Anticancer Drug Screen. Data for tumor model P388 Leukemia (intraperitoneal) in CD2F1 (CDF1) mice. Particulars: endpoint: median survival time, higher = longer survival. An outline of the steps:
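Mice carrying the transplanted tumor received test compound or vehicle. Survival was recorded in each group, and the value is the treated-group measurement divided by that of the vehicle-treated control group.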

[1] abbreviates: dose: 25.0 mg/kg/injection, schedule: Q01DX009 (ip), vehicle: saline with Tween-80.
The mark [2] stands for this setting: dose: 50.0 mg/kg/injection, schedule: Q01DX009 (ip), vehicle: saline with Tween-80.
Where [3] appears, read: dose: 100.0 mg/kg/injection, schedule: Q04DX003 (ip), vehicle: saline with Tween-80.
The mark [4] stands for this setting: dose: 200.0 mg/kg/injection, schedule: Q04DX003 (ip), vehicle: saline with Tween-80.
Setting [5] is: dose: 400.0 mg/kg/injection, schedule: Q04DX003 (ip), vehicle: saline with Tween-80.
Where [6] appears, read: dose: 100.0 mg/kg/injection, schedule: Q04DX003 (ip), vehicle: saline.
Setting [7] is: dose: 200.0 mg/kg/injection, schedule: Q04DX003 (ip), vehicle: saline.
[8] abbreviates: dose: 400.0 mg/kg/injection, schedule: Q04DX003 (ip), vehicle: saline.
[9] abbreviates: dose: 100.0 mg/kg/injection, schedule: Q01DX009 (ip), vehicle: saline with Tween-80.
Where [10] appears, read: dose: 200.0 mg/kg/injection, schedule: Q01DX009 (ip), vehicle: saline with Tween-80.

“And” between values parts separate entries of the source, which are not always exact repeats. Equal values may be shown once. Inconclusive results and toxic doses are left out.

`O=C(COc1ccc2c(=O)c3ccccc3oc2c1)N/N=C/c1ccc(N(CCCl)CCCl)cc1`: the T/C reads like this: (dose: 60.0 mg/kg/injection, schedule: Q01DX005 (ip), vehicle: Klucel (hydroxypropylcellulose) (HPC)) 97 % of control; (dose: 120.0 mg/kg/injection, schedule: Q01DX005 (ip), vehicle: Klucel (hydroxypropylcellulose) (HPC)) 95 % of control; (dose: 240.0 mg/kg/injection, schedule: Q01DX005 (ip), vehicle: Klucel (hydroxypropylcellulose) (HPC)) 94 % of control.
In the case of `COc1cc2c(c(OC)c1OC)-c1ccc(OC)c(=O)cc1C(=O)CC2`, the T/C (dose: 0.62 mg/kg/injection, schedule: Q01DX009 (ip), vehicle: Klucel (hydroxypropylcellulose) (HPC)) is 115 % of control and the T/C (dose: 5.0 mg/kg/injection, schedule: Q01DX009 (ip), vehicle: Klucel (hydroxypropylcellulose) (HPC)) was 157 % of control.
As for `CCCC(=O)OCC1OC(n2cnc3c(=S)nc[nH]c32)C(OC(=O)CCC)C1OC(=O)CCC` (configuration not stated), the T/C was 116 % of control (dose: 6.25 mg/kg/injection, schedule: Q01DX009 (ip), vehicle: saline with Tween-80); 112 % of control (dose: 12.5 mg/kg/injection, schedule: Q01DX009 (ip), vehicle: saline with Tween-80); 112 % of control under setting [1]; 116 % of control under setting [2].
With `COC(=O)C1(CC(=O)C=C(C)C)NC(=S)NC(=O)C1C#N` (configuration not stated), the T/C by setting is: (dose: 60.0 mg/kg/injection, schedule: Q01DX005 (ip), vehicle: saline) 98 % of control; (dose: 120.0 mg/kg/injection, schedule: Q01DX005 (ip), vehicle: saline) 103 % of control; (dose: 240.0 mg/kg/injection, schedule: Q01DX005 (ip), vehicle: saline) 98 % of control.
As to `COC(=O)C1c2cc3c(c(O)c2C(O)CC1(C)O)C(=O)c1c(O)cc2c(c1C3=O)OC1OC2(C)C(O)C(N(C)C)C1O` (configuration not stated), the T/C (dose: 25.0 mg/kg/injection, schedule: Q01DX010 (ip), vehicle: saline) was 100 % of control; the T/C (dose: 50.0 mg/kg/injection, schedule: Q01DX010 (ip), vehicle: saline) was 90 % of control; the T/C (dose: 100.0 mg/kg/injection, schedule: Q01DX010 (ip), vehicle: saline) was 100 % of control; the T/C (dose: 200.0 mg/kg/injection, schedule: Q01DX010 (ip), vehicle: saline) was 100 % of control.
Consider `Oc1cc2c(cc1C(c1ccc3c(c1)OCO3)N1CCCCC1)OCO2` (configuration not stated), for which the T/C is, setting by setting: (dose: 60.0 mg/kg/injection, schedule: Q01DX005 (ip), vehicle: saline with Tween-80) 119 % of control; (dose: 120.0 mg/kg/injection, schedule: Q01DX005 (ip), vehicle: saline with Tween-80) 118 % of control; (dose: 240.0 mg/kg/injection, schedule: Q01DX005 (ip), vehicle: saline with Tween-80) 120 % of control.
In the case of `Cc1c(-c2cnccn2)ssc1=S`, the T/C runs as follows: (dose: 50.0 mg/kg/injection, schedule: Q01DX005 (ip), vehicle: saline with Tween-80) 103 % of control; (dose: 100.0 mg/kg/injection, schedule: Q01DX005 (ip), vehicle: saline with Tween-80) 99 % of control; (dose: 200.0 mg/kg/injection, schedule: Q01DX005 (ip), vehicle: saline with Tween-80) 103 % of control.
On to `Nc1cccc(C(=O)c2cccc(N)c2)c1`, for which the T/C was 100 % of control under setting [3], 95 % of control under setting [4] and 100 % of control under setting [5].
With `CC1=C(Cl)CC(/C(C)=C/Cl)OC1(O)CBr` (configuration not stated), the T/C by setting is: (dose: 0.1 mg/kg/injection, schedule: Q01DX009 (ip), vehicle: Klucel (hydroxypropylcellulose) (HPC)) 100 % of control; (dose: 0.2 mg/kg/injection, schedule: Q01DX009 (ip), vehicle: Klucel (hydroxypropylcellulose) (HPC)) 100 % of control; (dose: 0.38 mg/kg/injection, schedule: Q01DX009 (ip), vehicle: Klucel (hydroxypropylcellulose) (HPC)) 95 % of control; (dose: 0.4 mg/kg/injection, schedule: Q01DX009 (ip), vehicle: Klucel (hydroxypropylcellulose) (HPC)) 97 % of control.
With `O=[N+]([O-])c1ccc2nc3ccccc3cc2c1`, the T/C (dose: 50.0 mg/kg/injection, schedule: Q04DX003 (ip), vehicle: saline) was 112 % of control; the T/C under setting [6] is 96 % of control; the T/C under setting [7] is 96 % of control; the T/C under setting [8] is 93 % of control.
Take `Cc1cccc(C(=O)O)n1`: the T/C reads like this: under setting [6], 104 % of control; under setting [7], 100 % of control; under setting [8], 109 % of control.
`CCC(=O)Oc1ccc[nH]c1=O`: the T/C was 101 % of control under setting [1]; 105 % of control and 92 % of control (dose: 25.0 mg/kg/injection, schedule: Q01DX009 (ip), vehicle: saline); 100 % of control under setting [2]; 100 % of control and 110 % of control (dose: 50.0 mg/kg/injection, schedule: Q01DX009 (ip), vehicle: saline); 100 % of control under setting [9]; 103 % of control and 94 % of control (dose: 100.0 mg/kg/injection, schedule: Q01DX009 (ip), vehicle: saline). In addition, the T/C under setting [10] was 112 % of control and 121 % of control; the T/C (dose: 300.0 mg/kg/injection, schedule: Q01DX009 (ip), vehicle: saline) was 115 % of control and 116 % of control; the T/C (dose: 400.0 mg/kg/injection, schedule: Q01DX009 (ip), vehicle: Klucel (hydroxypropylcellulose) (HPC)) was 123 % of control; the T/C (dose: 400.0 mg/kg/injection, schedule: Q01DX009 (ip), vehicle: saline with Tween-80) was 122 % of control; the T/C (dose: 500.0 mg/kg/injection, schedule: Q01DX009 (ip), vehicle: Klucel (hydroxypropylcellulose) (HPC)) is 154 % of control; the T/C (dose: 600.0 mg/kg/injection, schedule: Q01DX009 (ip), vehicle: saline with Tween-80) is 122 % of control. For the setting “dose: 600.0 mg/kg/injection, schedule: Q01DX009 (ip), vehicle: saline”, the T/C was 124 % of control.
On to `N#Cc1ccc(C(=O)C=[N+]=[N-])cc1`, for which the T/C is 109 % of control (dose: 100.0 mg/kg/injection, schedule: Q04DX003 (ip), vehicle: Klucel (hydroxypropylcellulose) (HPC)); 93 % of control (dose: 200.0 mg/kg/injection, schedule: Q04DX003 (ip), vehicle: Klucel (hydroxypropylcellulose) (HPC)); 100 % of control (dose: 400.0 mg/kg/injection, schedule: Q04DX003 (ip), vehicle: Klucel (hydroxypropylcellulose) (HPC)).
For `C=CCC(CC1CC2CCCCN2O1)OCc1ccccc1` (configuration not stated), the T/C was 101 % of control under setting [3], 105 % of control under setting [4] and 104 % of control under setting [5].
In the case of `COc1ccc(C[C@H]2c3c(cc4c(c3OC)OCO4)CCN2C)c(CO)c1OC`, the T/C by setting is: (dose: 9.38 mg/kg/injection, schedule: Q01DX005 (ip), vehicle: Klucel (hydroxypropylcellulose) (HPC)) 100 % of control; (dose: 18.75 mg/kg/injection, schedule: Q01DX005 (ip), vehicle: Klucel (hydroxypropylcellulose) (HPC)) 98 % of control; (dose: 37.5 mg/kg/injection, schedule: Q01DX005 (ip), vehicle: Klucel (hydroxypropylcellulose) (HPC)) 94 % of control; (dose: 75.0 mg/kg/injection, schedule: Q01DX005 (ip), vehicle: Klucel (hydroxypropylcellulose) (HPC)) 99 % of control.
For the molecule `NNS(=O)(=O)c1cccc([N+](=O)[O-])c1`, the T/C is 107 % of control (dose: 12.5 mg/kg/injection, schedule: Q01DX009 (ip), vehicle: other); 98 % of control (dose: 25.0 mg/kg/injection, schedule: Q01DX009 (ip), vehicle: other); 103 % of control (dose: 50.0 mg/kg/injection, schedule: Q01DX009 (ip), vehicle: other).
For the molecule `Cc1ccc(C(=Nc2ccccc2)c2ccccc2C)cc1`, the T/C (dose: 50.0 mg/kg/injection, schedule: Q04DX002 (ip), vehicle: saline with Tween-80) was 91 % of control and 95 % of control; the T/C (dose: 100.0 mg/kg/injection, schedule: Q04DX002 (ip), vehicle: saline with Tween-80) is 104 % of control and 86 % of control; the T/C (dose: 200.0 mg/kg/injection, schedule: Q04DX002 (ip), vehicle: saline with Tween-80) was 87 % of control and 93 % of control; the T/C (dose: 400.0 mg/kg/injection, schedule: Q04DX002 (ip), vehicle: saline with Tween-80) was 86 % of control and 95 % of control.
As to `Cc1ccc(NC(=O)Nc2ncn[nH]2)c(C)c1`, the T/C is, setting by setting: under setting [2], 107 % of control; under setting [9], 100 % of control; under setting [10], 107 % of control.
With `CC(C)=CCC/C(C)=C/CC/C(C)=C/CS(=O)(=O)c1ccc(C)cc1`, the T/C reads like this: under setting [2], 105 % of control; under setting [9], 105 % of control; under setting [10], 109 % of control.
